Laboratory results as given in US20130123201A1, “MODULATION OF CYTOKINE-INDUCED CHRONIC INFLAMMATORY RESPONSES” (UNIVERSITY OF MANITOBA, priority 2010, published 2013).
“And” between values parts separate entries of the source, which are not always exact repeats. Equal entries are not always repeated.

Tested on: Human macrophage-like THP-1 cells
Experiment: Kinome profiling with peptide arrays of kinase phosphorylation targets
Type: cell-based
Details: cytokine 20 ng/mL, 15 min, relative to un-stimulated control cells
Protocol: Kinome profiling: Human monocytic THP-1 cells were differentiated to plastic-adherent macrophage-like cells by treatment with PMA as described above, the cells were rested for 24 hr and then stimulated with either IL-32 (20 ng/mL) or IL-17 (20 ng/mL) for 15 min.
Subsequently, cellular lysates were prepared in lysis buffer (containing 20 mM Tris-HCl pH 7.5, 150 mM NaCl, 1 mM EDTA, 1 mM EGTA, 1 mM sodium fluoride, 1 mM sodium orthovanadate, 2.5 mM sodium pyrophosphate, protease inhibitor cocktail (Sigma-Aldrich) and 1% (v/v) Triton X-100, as taught by Jalal et al. (2009, Genome to kinome: species-specific peptide arrays for kinome analysis. Sci. Signal 2:11). Peptide arrays representing phosphorylation targets of kinase activity were incubated with the cellular lysates for quantifying global kinase activity following the methods disclosed by Jalal et al. (2009). The trends of protein phosphorylation events upon stimulation with IL-32 and IL-17 were comprehensively analysed after normalization and background correction of signal strength following the methods disclosed by Jalal et al. (2009). The phosphorylations of the peptides on the array were quantitated in the cytokine-treated cells relative to the un-stimulated control cells.
Kinome profiling: Human macrophage-like THP-1 cells were differentiated to plastic-adherent macrophage-like cells by treatment with PMA as described above, after which the cells were rested for 24 hr and then stimulated with either IL-32 (20 ng/mL) or IL-17 (20 ng/mL) for 15 min. Subsequently, cellular lysates were prepared in lysis buffer (containing 20mM Tris-HCl pH 7.5, 150 mM NaCl, 1 mM EDTA, 1 mM EGTA, 1 mM sodium fluoride, 1 mM sodium orthovanadate, 2.5 mM sodium pyrophosphate, protease inhibitor cocktail (Sigma-Aldrich Canada Inc.) and 1% (v/v) Triton X-100, as taught by Mookherjee et al. (2006). Peptide arrays representing phosphorylation targets of kinase activity were incubated with the cellular lysates for quantifying global kinase activity as taught by Jalal et al. (2009, Genome to kinome: species-specific peptide arrays for kinome analysis. Sci. Signal 2:11). The trends of protein phosphorylation events upon stimulation with IL-32 and IL-17 were comprehensively analysed after normalization and background correction of signal strength as taught by Jalal et al. (2009). The phosphorylations of the peptides on the array were quantitated in the cytokine-treated cells relative to the un-stimulated control cells.
Differential phosphorylation events in THP-1 cells stimulated by IL-32 and IL-17: THP-1 cells were stimulated with either IL-17 (20 ng/ml) or IL-32 (20 ng/ml) for 15 min. The cellular lysates were incubated with peptide arrays representing phosphorylation targets of kinase activity for quantifying global kinase activity as previously described. The phosphorylation of the peptides on the array were quantitated in the cytokine-treated cells relative to the un-stimulated control cells after normalization and background correction of signal strength taught by Jalal et al. (2009).

“IL-17: Recombinant human cytokine IL-17A/F from eBioscience, used as stimulant” was tested, and the “Relative Fold change in phosphorylation, APE1 (P27695) S289” value was 1.52 fold and 1.28 fold, the “Relative Fold change in phosphorylation, Akt1 (P31749) S124/9” value was −3.27 fold and the “Relative Fold change in phosphorylation, CCR5 (P51681) S336/7” value was −2.62 fold. The “Relative Fold change in phosphorylation, CTNNB1 (P35222) T41/45” value was −4.12 fold, the “Relative Fold change in phosphorylation, DAPK1 (P53355) S308” value was 2.19 fold and 1.45 fold and the “Relative Fold change in phosphorylation, Daxx (Q9UER7) S668/71” value was −3.45 fold. For the same substance, the “Relative Fold change in phosphorylation, Grb10 (Q13322) S150” value was −1.86 fold, the “Relative Fold change in phosphorylation, Kit (P10721) Y721” value was −1.75 fold and the “Relative Fold change in phosphorylation, NFAT4 (Q12968) S163/5” value was −2.22 fold. For the same substance, the “Relative Fold change in phosphorylation, PKACa (P17612) S338” value was −1.64 fold, the “Relative Fold change in phosphorylation, STAT6 (P42226) Y641” value was −1.94 fold and the “Relative Fold change in phosphorylation, Smad3 (P84022) S422/3/5” value was −2.37 fold. The “Relative Fold change in phosphorylation, TAK1 (O43318) T184” value was −2.01 fold, the “Relative Fold change in phosphorylation, axin-1 (O15169) S486” value was −3.73 fold and the “Relative Fold change in phosphorylation, p53 (P04637) S6/9” value was −2.43 fold. For the same substance, the “Relative Fold change in phosphorylation, p300 (Q09472) S1834” value was 1.92 fold and 1.71 fold.
